ChEMBL document CHEMBL1212761, “Biologic activities of the TolC-like protein of Neisseria meningitidis as assessed by functional complementation in Escherichia coli” (2010)
Converted amounts (≈) assume the structure as drawn.

Columns and labels:
Format in all cases: functional
[1] = test system: Escherichia coli; assay: Antimicrobial activity against Escherichia coli RAM1129 by agar dilution method
[2] = test system: Escherichia coli; assay: Antimicrobial activity against Escherichia coli RAM4100 by agar dilution method
[3] = test system: Escherichia coli; assay: Antimicrobial activity against Escherichia cloi RAM1129 transfected with pNK1 containg Neisseria meningitidis tolC gene by agar dilution method
[4] = test system: Escherichia coli; assay: Antimicrobial activity against Escherichia cloi RAM1129 transfected with pGCC4 containg IPTG-inducible lacZ promoter by agar dilution method
[5] = test system: Neisseria meningitidis; assay: Antimicrobial activity against Neisseria meningitidis M7tolC::Kan by agar dilution method
[6] = test system: Neisseria meningitidis; assay: Antimicrobial activity against Neisseria meningitidis M7 by agar dilution method
[7] = test system: Neisseria meningitidis; assay: Antimicrobial activity against Neisseria meningitidis M7tolC::Kan mtr::Spc by agar dilution method
[8] = test system: Neisseria meningitidis; assay: Antimicrobial activity against Neisseria meningitidis M7mtrE::Spc by agar dilution method
[9] = test system: Escherichia coli; assay: Antimicrobial activity against Escherichia cloi RAM4100 transfected with pNK1 containg Neisseria meningitidis tolC gene by agar dilution method
[10] = test system: Escherichia coli; assay: Antimicrobial activity against Escherichia cloi RAM4100 transfected with pGCC4 containg IPTG-inducible lacZ promoter by agar dilution method

Compound | MIC [1] [µg/mL] | MIC [2] [µg/mL] | MIC [3] [µg/mL] | MIC [4] [µg/mL] | MIC [5] [µg/mL] | MIC [6] [µg/mL] | MIC [7] [µg/mL] | MIC [8] [µg/mL] | MIC [9] [µg/mL] | MIC [10] [µg/mL]
CO[C@@H]1[C@@H](OC(N)=O)[C@@H](O)[C@H](Oc2ccc3c(O)c(NC(=O)c4ccc(O)c(CC=C(C)C)c4)c(=O)oc3c2C)OC1(C)C [NOVOBIOCIN] | 40 (≈ 65.3 µM) | 500 (≈ 816 µM) | 500 (≈ 816 µM) | 40 (≈ 65.3 µM) | – | – | – | – | – | –
O=C(O)c1cn(C2CC2)c2cc(N3CCNCC3)c(F)cc2c1=O [CIPROFLOXACIN] | – | – | – | – | 0.02 (≈ 0.0604 µM) | 0.02 (≈ 0.0604 µM) | 0.02 (≈ 0.0604 µM) | 0.02 (≈ 0.0604 µM) | – | –
CC[C@H](C)[C@H](NC(=O)[C@H](CCCCN)NC(=O)[C@H](CCC(=O)O)NC(=O)[C@H](CCCCN)NC(=O)[C@H](CO)NC(=O)[C@H](CCCCN)NC(=O)[C@H](CCCNC(=N)N)NC(=O)[C@H](Cc1ccccc1)NC(=O)[C@H](Cc1ccccc1)NC(=O)[C@H](CC(=O)O)NC(=O)CNC(=O)[C@H](CC(C)C)NC(=O)[C@@H](N)CC(C)C)C(=O)NCC(=O)N[C@@H](CCCCN)C(=O)N[C@@H](CCC(=O)O)C(=O)N[C@@H](Cc1ccccc1)C(=O)N[C@@H](CCCCN)C(=O)N[C@@H](CCCNC(=N)N)C(=O)N[C@H](C(=O)N[C@H](C(=O)N[C@@H](CCC(N)=O)C(=O)N[C@@H](CCCNC(=N)N)C(=O)N[C@H](C(=O)N[C@@H](CCCCN)C(=O)N[C@@H](CC(=O)O)C(=O)N[C@@H](Cc1ccccc1)C(=O)N[C@@H](CC(C)C)C(=O)N[C@@H](CCCNC(=N)N)C(=O)N[C@@H](CC(N)=O)C(=O)N[C@@H](CC(C)C)C(=O)N[C@H](C(=O)N1CCC[C@H]1C(=O)N[C@@H](CCCNC(=N)N)C(=O)N[C@H](C(=O)N[C@@H](CCC(=O)O)C(=O)N[C@@H](CO)C(=O)O)[C@@H](C)O)C(C)C)[C@@H](C)CC)C(C)C)[C@@H](C)CC [CATHELICIDIN] | – | – | – | – | 7.8 (≈ 1.74 µM) | 7.8 (≈ 1.74 µM) | 1.98 (≈ 0.441 µM) | 1.98 (≈ 0.441 µM) | – | –
CC[C@H]1OC(=O)[C@H](C)[C@@H](O[C@H]2C[C@@](C)(OC)[C@@H](O)[C@H](C)O2)[C@H](C)[C@@H](O[C@@H]2O[C@H](C)C[C@H](N(C)C)[C@H]2O)[C@](C)(O)C[C@@H](C)CN(C)[C@H](C)[C@@H](O)[C@]1(C)O [AZITHROMYCIN] | – | – | – | – | 2 (≈ 2.67 µM) | 2 (≈ 2.67 µM) | 0.125 (≈ 0.167 µM) | 0.125 (≈ 0.167 µM) | – | –
CC[C@H]1OC(=O)[C@H](C)[C@@H](O[C@H]2C[C@@](C)(OC)[C@@H](O)[C@H](C)O2)[C@H](C)[C@@H](O[C@@H]2O[C@H](C)C[C@H](N(C)C)[C@H]2O)[C@](C)(O)C[C@@H](C)C(=O)[C@H](C)[C@@H](O)[C@]1(C)O [ERYTHROMYCIN] | – | – | 5 (≈ 6.81 µM) | 5 (≈ 6.81 µM) | – | – | – | – | 300 (≈ 409 µM) | 300 (≈ 409 µM)
CN(C)c1ccc(C(=C2C=CC(=[N+](C)C)C=C2)c2ccc(N(C)C)cc2)cc1.[Cl-] [GENTIAN VIOLET] | 1.5 | > 40 | > 40 | 1.5 | – | – | – | – | – | –
CC[n+]1c(-c2ccccc2)c2cc(N)ccc2c2ccc(N)cc21.[Br-] [HOMIDIUM BROMIDE] | 5 | > 200 | > 200 | 5 | 12 | 12 | 0.75 | 0.75 | – | –
CCCCCCCCCCCCCCCC(=O)O [PALMITIC ACID] | – | – | – | – | 400 (≈ 1560 µM) | 400 (≈ 1560 µM) | 50 (≈ 195 µM) | 50 (≈ 195 µM) | – | –
